From patent US20060160197A1 (priority 2004, published 2006)

Columns and labels:
Assay type in all cases: physicochemical
[1] = Example 17 back extraction with aqueous glycolic acid from loaded solvent (70% Alamine 336/10% MIBK/20% kerosene), 120° C.; conditions: 40 psig nitrogen
Method: (§1) A variety of analytical methods can be employed to analyze the reactants and products produced using the present methods include HPLC, GC, ion selective electrodes, MS, NMR, etc. HPLC was used to measure glycolic acid and various related products. Briefly, samples are diluted with water (as needed to be within HPLC detection range) and mixed 1:1 with 0.2 M n-propanol in water (HPLC internal standard). HPLC Analytical Method: (BioRad HPX 87H ion exclusion column (BioRad, Hercules, Calif.), 300 mm×7.8 mm; 0.01 N H2SO4 mobile phase; 1.0 mL/min flow at 50° C.; 10 μL injection volume; RI detector and UV 210 nm, 20 min analysis time). HPLC Equipment: (Waters 2695 ‘Alliance’ Separations Module, 2410 Refractive Index Detector, 2487 Dual λ Absorbance Detector and Empower Pro Software (Waters Corp, Milford, Mass.).
Following the procedures in Example 1, into a 1-L cylindrical glass vessel on an extraction mixer (mix by rotating back and forth vertically) was placed 100 mL of a mixed solvent containing 70% (volume/volume) Alamine® 336 (Cognis), 10% (volume/volume) methyl isobutyl ketone (MIBK) and 20% (volume/volume) kerosene. The pH of an aqueous solution of ammonium glycolate (10 wt % to 50 wt %) was adjusted to approximately pH 2 to 3 with concentrated sulfuric acid, then 100 mL of the resulting aqueous solution was added to the extraction mixer. […]

[2] = Example 18 back extraction using water from loaded solvent (70% Alamine 336/10% MIBK/20% kerosene), 140° C.; conditions: back extraction into deionized water, 40 psig nitrogen
Method: as §1
Following the procedures in Example 1, into a 1-L cylindrical glass vessel on an extraction mixer (mix by rotating back and forth vertically) was placed 100 mL of a mixed solvent containing 70% (volume/volume) Alamine® 336 (Cognis), 10% (volume/volume) methyl isobutyl ketone (MIBK) and 20% (volume/volume) kerosene. The pH of an aqueous solution of ammonium glycolate (10 wt % to 50 wt %) was adjusted to approximately pH 2 to 3 with concentrated sulfuric acid, then 100 mL of the resulting aqueous solution was added to the extraction mixer. The resulting mixture was stirred for 60 minutes at room temperature. […] The organic phase was collected and used in the back extraction. This organic phase containing glycolic acid is referred as “loaded solvent” below.
Back Extraction Using Water from a Loaded Solvent of Approximately 70% C8-C10 Trialkylamine in Combination with 10% Methyl Isobutyl Ketone and 20% Kerosene
(§2) Into a 85-mL pressure reaction glass tube (pressure reaction vessel, from Andrews Glass Co.) equipped with magnetic stir bar and double dip tubes was placed 10 mL deionized water and 10 mL of the loaded solvent (see Example 16). The vessel was then closed, and the headspace purged with nitrogen. The resulting mixture was stirred for 60 minutes at 140° C. under 40 psig (˜275.8 kPa) nitrogen. The stirring was stopped and the two phases allowed to separate at 140° C., then the organic phase was sampled under pressure through the top dip tube into a Hoke cylinder, and aqueous phases was sampled under pressure through the bottom dip tube into another Hoke cylinder.

[3] = Example 11 reactive solvent extraction, 70% Alamine 336/30% 1-octanol, 75° C.; conditions: pH 2 to 3
Method: as §1
Solvent Extraction Using Approximately 70% C8-C10 Trialkylamine in Combination with 30% 1-Octanol at 75° C.
(§3) Into a 4-mL glass reactor equipped with magnetic stir bar was placed 1 mL of a mixed solvent containing 70% (volume/volume) Alamine® 336 (Cognis), 30% (volume/volume) 1-octanol. The pH of an aqueous solution of ammonium glycolate (5 wt % to 40 wt %) was adjusted to pH 2 to 3 with concentrated sulfuric acid, then 1 mL of the resulting aqueous solution was added to the reactor. The resulting mixture was stirred for 30 minutes at 75° C.

[4] = Example 7 reactive solvent extraction, 50% Alamine 336/10% MIBK/40% kerosene, 75° C.; conditions: pH 2 to 3
Method: as §1
Solvent Extraction Using Approximately 50% C8-C10 Trialkylamine in Combination with 10% Methyl Isobutyl Ketone and 40% Kerosene at 75° C.
as §3, with “50%” for “70%”, “10%” for “30%”, “methyl isobutyl ketone (MIBK) and 40% (volume/volume) kerosene.” for “1-octanol.”

[5] = Example 8 reactive solvent extraction, 90% Alamine 336/10% 1-octanol, 25° C.; conditions: pH 2 to 3
Method: as §1
Solvent Extraction Using Approximately 90% C8-C10 Trialkylamine in Combination with 10% 1-Octanol at 25° C.
as §3, with “90%” for “70%”, “10%” for “30%”, “25°” for “75°”

[6] = Example 22 back extraction using water from loaded solvent (70% trialkylamine/30% toluene), 140° C.; conditions: back extraction into deionized water, 70% C8-C10 trialkylamine/30% toluene, 40 psig nitrogen
Method: as §1
Back Extraction Using Water from a Loaded Solvent of Approximately 70% C8-C10 Trialkylamine in Combination with 30% Toluene
as §2

[7] = initial 3.6 wt % glycolic acid in aqueous phase
[8] = initial 8.5 wt % glycolic acid in aqueous phase
[9] = initial 12.1 wt % glycolic acid in aqueous phase
[10] = initial 16.1 wt % glycolic acid in aqueous phase
[11] = initial 20.6 wt % glycolic acid in aqueous phase
[12] = initial 25.1 wt % glycolic acid in aqueous phase
[13] = initial 29.1 wt % glycolic acid in aqueous phase
[14] = initial 32.8 wt % glycolic acid in aqueous phase

Structure (SMILES): O=C(O)CO [glycolic acid]
- Partition coefficient (wt % org./wt % aq.) ([1]; initial 20.0 wt % glycolic acid in aqueous phase, 16.0 wt % in loaded solvent): 0.59
- Partition coefficient (wt % org./wt % aq.) ([1]; initial 40.0 wt % glycolic acid in aqueous phase, 17.5 wt % in loaded solvent): 0.51
- Partition coefficient (wt % org./wt % aq.) ([2]; initial 3.9 wt % glycolic acid in loaded solvent): 0.48
- Partition coefficient (wt % org./wt % aq.) ([2]; initial 11.3 wt % glycolic acid in loaded solvent): 0.37
- Partition coefficient (wt % org./wt % aq.) ([2]; initial 16.0 wt % glycolic acid in loaded solvent): 0.34
- Partition coefficient (wt % org./wt % aq.) ([2]; initial 17.5 wt % glycolic acid in loaded solvent): 0.35
- Partition coefficient (wt % org./wt % aq.) [3, 7]: 0.69
- Partition coefficient (wt % org./wt % aq.) [3, 8]: 0.74
- Partition coefficient (wt % org./wt % aq.) [3, 9]: 0.64
- Partition coefficient (wt % org./wt % aq.) [3, 10]: 0.68
- Partition coefficient (wt % org./wt % aq.) [3, 11]: 0.62
- Partition coefficient (wt % org./wt % aq.) [3, 12]: 0.61
- Partition coefficient (wt % org./wt % aq.) [3, 13]: 0.50
- Partition coefficient (wt % org./wt % aq.) [3, 14]: 0.52
- Partition coefficient (wt % org./wt % aq.) [4, 7]: 0.38
- Partition coefficient (wt % org./wt % aq.) [4, 8]: 0.32
- Partition coefficient (wt % org./wt % aq.) [4, 9]: 0.35
- Partition coefficient (wt % org./wt % aq.) [4, 10]: 0.28
- Partition coefficient (wt % org./wt % aq.) [4, 11]: 0.33
- Partition coefficient (wt % org./wt % aq.) [4, 12]: 0.35
- Partition coefficient (wt % org./wt % aq.) [4, 13]: 0.35
- Partition coefficient (wt % org./wt % aq.) [4, 14]: 0.35
- Partition coefficient (wt % org./wt % aq.) [5, 7]: 1.09
- Partition coefficient (wt % org./wt % aq.) [5, 8]: 1.03
- Partition coefficient (wt % org./wt % aq.) [5, 9]: 1.30
- Partition coefficient (wt % org./wt % aq.) [5, 10]: 1.20
- Partition coefficient (wt % org./wt % aq.) [5, 11]: 1.20
- Partition coefficient (wt % org./wt % aq.) [5, 12]: 1.10
- Partition coefficient (wt % org./wt % aq.) [5, 13]: 0.99
- Partition coefficient (wt % org./wt % aq.) [5, 14]: 0.82
- Partition coefficient (wt % org./wt % aq.) ([6]; initial 3.7 wt % glycolic acid in loaded solvent): 0.26
- Partition coefficient (wt % org./wt % aq.) ([6]; initial 10.7 wt % glycolic acid in loaded solvent): 0.30
- Partition coefficient (wt % org./wt % aq.) ([6]; initial 14.2 wt % glycolic acid in loaded solvent): 0.38
- Partition coefficient (wt % org./wt % aq.) ([6]; initial 15.7 wt % glycolic acid in loaded solvent): 0.28
